Test results from patent US20090238808A1, “Process for the identification of novel enzyme interacting compounds” (priority 2005, published 2009).

What was measured:
DDR2 = molecular target: T1, DDR2 (Homo sapiens, UniProt Q16832); assay: Biochemical kinase activity assay (Upstate IC50Profiler Express); details: Upstate IC50Profiler Express service
T1 construct: purchased Upstate (IC50Profiler Express service)

CSK = CSK (Homo sapiens, UniProt P41240); details: purified kinase; published data; cited from earlier work
Sequence of CSK (P41240 whole entry, species assumed): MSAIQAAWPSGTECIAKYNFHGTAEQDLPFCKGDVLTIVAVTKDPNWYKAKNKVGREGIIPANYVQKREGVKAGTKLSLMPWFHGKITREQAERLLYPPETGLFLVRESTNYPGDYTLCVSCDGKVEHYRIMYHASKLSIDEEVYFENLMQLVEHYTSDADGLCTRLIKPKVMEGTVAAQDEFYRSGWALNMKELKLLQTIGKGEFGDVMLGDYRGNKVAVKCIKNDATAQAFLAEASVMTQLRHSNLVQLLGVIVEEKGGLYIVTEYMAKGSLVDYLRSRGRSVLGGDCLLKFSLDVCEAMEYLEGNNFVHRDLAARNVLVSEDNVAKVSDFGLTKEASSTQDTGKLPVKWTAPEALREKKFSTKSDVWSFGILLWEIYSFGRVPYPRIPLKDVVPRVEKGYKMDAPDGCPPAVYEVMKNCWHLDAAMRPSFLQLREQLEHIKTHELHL

MER = molecular target: T2, MER (Homo sapiens, UniProt Q12866); assay: Biochemical kinase activity assay (Invitrogen SelectScreen)
T2 sequence (Q12866 21-999): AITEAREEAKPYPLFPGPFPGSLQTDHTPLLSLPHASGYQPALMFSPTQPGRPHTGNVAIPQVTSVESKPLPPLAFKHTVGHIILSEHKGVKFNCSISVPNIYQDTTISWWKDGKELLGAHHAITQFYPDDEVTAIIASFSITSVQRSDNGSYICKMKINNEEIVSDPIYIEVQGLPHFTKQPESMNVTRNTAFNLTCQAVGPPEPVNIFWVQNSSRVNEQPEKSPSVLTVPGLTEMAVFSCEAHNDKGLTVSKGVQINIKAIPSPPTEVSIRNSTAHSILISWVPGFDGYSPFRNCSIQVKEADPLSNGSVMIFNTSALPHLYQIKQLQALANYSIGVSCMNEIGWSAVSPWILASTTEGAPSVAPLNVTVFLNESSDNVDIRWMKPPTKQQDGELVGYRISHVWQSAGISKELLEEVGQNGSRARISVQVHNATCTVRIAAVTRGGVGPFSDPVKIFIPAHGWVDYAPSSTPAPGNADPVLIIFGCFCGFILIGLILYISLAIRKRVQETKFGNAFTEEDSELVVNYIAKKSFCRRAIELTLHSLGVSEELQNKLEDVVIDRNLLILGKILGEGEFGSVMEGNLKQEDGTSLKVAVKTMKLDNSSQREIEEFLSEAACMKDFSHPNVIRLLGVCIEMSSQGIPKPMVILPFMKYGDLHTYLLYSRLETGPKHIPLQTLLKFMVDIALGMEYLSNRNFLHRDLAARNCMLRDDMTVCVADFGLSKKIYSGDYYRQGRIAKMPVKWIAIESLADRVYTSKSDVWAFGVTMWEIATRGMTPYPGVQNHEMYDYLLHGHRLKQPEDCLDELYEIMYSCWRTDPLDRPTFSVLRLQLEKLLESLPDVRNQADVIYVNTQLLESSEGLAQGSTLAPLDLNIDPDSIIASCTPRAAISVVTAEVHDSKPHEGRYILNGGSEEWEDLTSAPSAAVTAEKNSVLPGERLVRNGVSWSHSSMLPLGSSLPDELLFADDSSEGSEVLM

FER = FER (Homo sapiens, UniProt P16591); assay: as above; details: read-out: % inhibition, FER
Sequence of FER (P16591 whole entry): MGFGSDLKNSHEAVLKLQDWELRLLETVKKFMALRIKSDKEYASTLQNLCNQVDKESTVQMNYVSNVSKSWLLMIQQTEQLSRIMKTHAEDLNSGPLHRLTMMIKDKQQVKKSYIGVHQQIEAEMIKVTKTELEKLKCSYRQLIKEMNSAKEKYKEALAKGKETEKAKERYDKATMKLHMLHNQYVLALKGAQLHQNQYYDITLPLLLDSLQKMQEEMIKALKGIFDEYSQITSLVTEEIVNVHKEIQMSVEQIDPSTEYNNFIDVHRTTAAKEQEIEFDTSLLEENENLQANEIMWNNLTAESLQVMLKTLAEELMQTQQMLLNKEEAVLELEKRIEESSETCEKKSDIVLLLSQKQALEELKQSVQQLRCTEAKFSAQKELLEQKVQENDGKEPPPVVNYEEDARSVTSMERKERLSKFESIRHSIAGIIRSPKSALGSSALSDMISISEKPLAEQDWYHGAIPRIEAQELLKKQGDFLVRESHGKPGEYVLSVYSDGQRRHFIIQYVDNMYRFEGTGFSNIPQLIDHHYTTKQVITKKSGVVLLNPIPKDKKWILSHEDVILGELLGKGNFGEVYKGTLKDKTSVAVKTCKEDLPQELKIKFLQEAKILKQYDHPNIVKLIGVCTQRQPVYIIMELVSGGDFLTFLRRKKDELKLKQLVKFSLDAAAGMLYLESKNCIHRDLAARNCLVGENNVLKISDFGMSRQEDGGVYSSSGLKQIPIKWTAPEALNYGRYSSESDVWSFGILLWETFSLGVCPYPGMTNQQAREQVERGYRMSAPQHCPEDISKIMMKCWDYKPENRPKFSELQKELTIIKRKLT

GCK = GCK (Homo sapiens, UniProt Q12851); assay: as above; details: read-out: % inhibition, GCK
Sequence of GCK (Q12851 whole entry): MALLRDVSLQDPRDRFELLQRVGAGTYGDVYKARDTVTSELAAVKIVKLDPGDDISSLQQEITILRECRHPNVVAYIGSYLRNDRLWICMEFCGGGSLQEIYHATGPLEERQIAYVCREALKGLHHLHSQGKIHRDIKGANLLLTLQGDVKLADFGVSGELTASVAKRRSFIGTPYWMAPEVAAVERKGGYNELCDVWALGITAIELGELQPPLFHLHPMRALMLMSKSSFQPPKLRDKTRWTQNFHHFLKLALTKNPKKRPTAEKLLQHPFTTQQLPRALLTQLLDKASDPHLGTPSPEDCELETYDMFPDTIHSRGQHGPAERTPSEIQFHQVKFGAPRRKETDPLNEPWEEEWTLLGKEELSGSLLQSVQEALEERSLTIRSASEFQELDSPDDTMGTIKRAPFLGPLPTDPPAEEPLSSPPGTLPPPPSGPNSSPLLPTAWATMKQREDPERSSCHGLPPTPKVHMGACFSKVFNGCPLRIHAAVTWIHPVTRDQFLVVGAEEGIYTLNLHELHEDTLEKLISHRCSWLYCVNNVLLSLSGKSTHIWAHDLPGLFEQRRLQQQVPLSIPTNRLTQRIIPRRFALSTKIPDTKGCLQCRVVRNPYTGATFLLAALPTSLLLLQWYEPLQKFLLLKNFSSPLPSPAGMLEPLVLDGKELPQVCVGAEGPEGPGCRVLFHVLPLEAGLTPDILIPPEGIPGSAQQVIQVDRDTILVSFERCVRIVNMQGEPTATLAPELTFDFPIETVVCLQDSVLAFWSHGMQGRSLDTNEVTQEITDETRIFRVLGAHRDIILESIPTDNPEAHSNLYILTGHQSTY

T1 sequence (Q16832 22-855): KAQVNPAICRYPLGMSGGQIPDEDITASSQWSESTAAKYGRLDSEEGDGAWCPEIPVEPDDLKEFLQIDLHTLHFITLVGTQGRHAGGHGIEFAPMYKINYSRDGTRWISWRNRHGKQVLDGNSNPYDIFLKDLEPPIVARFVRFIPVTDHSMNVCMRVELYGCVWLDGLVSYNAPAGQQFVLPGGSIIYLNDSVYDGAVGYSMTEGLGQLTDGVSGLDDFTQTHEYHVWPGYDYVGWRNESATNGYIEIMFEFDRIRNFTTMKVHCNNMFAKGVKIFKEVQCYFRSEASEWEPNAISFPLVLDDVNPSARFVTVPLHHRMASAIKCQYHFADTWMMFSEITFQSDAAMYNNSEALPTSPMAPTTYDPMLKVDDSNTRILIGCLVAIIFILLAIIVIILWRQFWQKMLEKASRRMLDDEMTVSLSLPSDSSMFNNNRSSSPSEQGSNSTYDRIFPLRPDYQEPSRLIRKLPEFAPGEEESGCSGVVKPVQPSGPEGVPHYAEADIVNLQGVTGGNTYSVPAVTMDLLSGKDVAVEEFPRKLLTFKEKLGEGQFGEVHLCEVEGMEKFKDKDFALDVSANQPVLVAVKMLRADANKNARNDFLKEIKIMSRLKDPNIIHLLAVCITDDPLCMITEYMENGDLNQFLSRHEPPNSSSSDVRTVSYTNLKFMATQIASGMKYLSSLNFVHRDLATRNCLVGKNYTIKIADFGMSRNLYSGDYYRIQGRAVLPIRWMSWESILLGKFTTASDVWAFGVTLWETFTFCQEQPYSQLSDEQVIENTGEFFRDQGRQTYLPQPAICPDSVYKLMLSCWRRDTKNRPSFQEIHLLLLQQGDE

Compound: COc1cc(Nc2c(C#N)cnc3cc(OCCCN4CCN(C)CC4)c(OC)cc23)c(Cl)cc1Cl [bosutinib]
- IC50 (DDR2): 4900 nM
- IC50 (CSK): 310 nM
- IC50 (MER): 15.7 nM

Compound: Cc1nc(Nc2ncc(C(=O)Nc3c(C)cccc3Cl)s2)cc(N2CCN(CCO)CC2)n1 [dasatinib]
- inhibition at 5 µM (FER): 36%
- inhibition at 5 µM (GCK): 60%
- inhibition at 5 µM (MER; read-out: % inhibition, MER): 40%
